Test results published in ChEMBL document CHEMBL1159073, “Inhibition of IKK-beta: a new development in the mechanism of the anti-obesity effects of PTP1B inhibitors SA18 and SA32” (Bioorg Med Chem Lett, 2010).
The source made the active and inactive calls. No cut-off for these calls is given here.

Experiments:
[1] = target: T1, Inhibitor of nuclear factor kappa-B kinase subunit beta (Homo sapiens, UniProt O14920); assay: Inhibition of IKK-beta by tome resolved fluorescence assay
T1 sequence (O14920 whole entry): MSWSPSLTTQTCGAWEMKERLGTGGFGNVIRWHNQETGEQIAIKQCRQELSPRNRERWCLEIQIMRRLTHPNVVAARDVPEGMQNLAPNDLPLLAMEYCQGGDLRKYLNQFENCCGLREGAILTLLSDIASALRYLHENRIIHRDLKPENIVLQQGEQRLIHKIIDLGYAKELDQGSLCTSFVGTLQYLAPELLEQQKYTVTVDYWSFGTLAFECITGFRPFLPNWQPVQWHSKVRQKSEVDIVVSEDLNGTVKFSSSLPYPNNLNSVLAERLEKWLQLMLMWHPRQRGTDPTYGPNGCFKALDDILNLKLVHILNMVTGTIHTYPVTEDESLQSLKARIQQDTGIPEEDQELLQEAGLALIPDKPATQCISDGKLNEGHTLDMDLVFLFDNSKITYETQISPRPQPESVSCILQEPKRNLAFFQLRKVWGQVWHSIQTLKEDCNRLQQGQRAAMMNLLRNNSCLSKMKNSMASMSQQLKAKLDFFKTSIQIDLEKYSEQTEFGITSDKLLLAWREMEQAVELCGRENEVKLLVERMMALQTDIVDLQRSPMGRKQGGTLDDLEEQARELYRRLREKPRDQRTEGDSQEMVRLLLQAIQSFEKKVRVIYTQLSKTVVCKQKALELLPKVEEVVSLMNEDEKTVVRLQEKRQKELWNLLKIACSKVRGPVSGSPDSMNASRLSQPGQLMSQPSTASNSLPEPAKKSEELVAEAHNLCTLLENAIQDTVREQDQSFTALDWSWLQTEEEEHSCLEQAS

[2] = test system: Mus musculus; assay: Antiobesity activity in high fat diet-induced obese C57BL/6J Jms Slc mouse model assessed as blood nonesterified free fatty acid level administered through diet for 28 days (reference value: 0.35+/-0.09); format: functional
[3] = test system: Mus musculus; assay: Antiobesity activity in high fat diet-induced obese C57BL/6J Jms Slc mouse model assessed as blood total cholesterol level administered through diet for 28 days (reference value: 141+/-10); format: functional
[4] = test system: 3T3-L1; assay: Inhibition of IkappaB-alpha degradation in LPS-stimulated mouse 3T3L1 cells at 50 uM pretreated 30 mins before LPS containing cytokine mixture challenge measured after 60 mins by Western blotting; format: functional, cell-based
[5] = species: Mus musculus; assay: Inhibition of IkappaB-alpha degradation in LPS-stimulated mouse […] cells at 50 uM pretreated 30 mins before LPS containing cytokine mixture challenge measured by Western blotting; format: functional
[6] = test system: Mus musculus; assay: Antiobesity activity in high fat diet-induced obese C57BL/6J Jms Slc mouse model assessed as retroperitoneal adipose tissue weight administered through diet for 28 days (reference value: 0.51+/-0.11); format: functional
[7] = test system: 3T3-L1; assay: Inhibition of IkappaB-alpha degradation in LPS-stimulated mouse 3T3L1 cells at 50 uM pretreated 30 mins before LPS containing cytokine mixture challenge measured after 30 mins by Western blotting; format: functional, cell-based
[8] = test system: Mus musculus; assay: Antiobesity activity in high fat diet-induced obese C57BL/6J Jms Slc mouse model assessed as epididymal adipose tissue weight administered through diet for 28 days (reference value: 1.8+/-0.49); format: functional
[9] = test system: Mus musculus; assay: Antiobesity activity in high fat diet-induced obese C57BL/6J Jms Slc mouse model assessed as blood triglyceride level administered through diet for 28 days (reference value: 63+/-32); format: functional
[10] = test system: Mus musculus; assay: Antiobesity activity in high fat diet-induced obese C57BL/6J Jms Slc mouse model assessed as change in body weight administered through diet for 28 days (reference value: 33.4+/-2.8); format: functional

Row | SMILES | IC50 [1] | Activity [2] | Activity [3] | inhibition [4] | inhibition [5] | Activity [6] | inhibition [7] | Activity [8] | Activity [9] | Activity [10]
1 | O=C(Nc1cc(Cl)cc2c1[nH]c1cnccc12)c1cccnc1 | 150 nM | – | – | – | – | – | – | – | – | –
2 | O=C(O)c1cc(Cc2cc(C(=O)O)c(O)c(-c3ccccc3)c2)cc(-c2ccccc2)c1O | – | 0.24 mEq/L | 129 mg/dL | Active | Active | 0.26 g | Active | 0.86 g | 42 mg/dL | 29.2 g
3 | O=C(O)c1cc(-c2ccccc2)cc(Cc2cc(-c3ccccc3)cc(C(=O)O)c2O)c1O | – | 0.14 mEq/L | 133 mg/dL | Active | Active | 0.26 g | Active | 0.83 g | 48 mg/dL | 28.9 g
